Eight molecules from patent US20230265116A1, “DEGRADATION OF (EGFR) BY CONJUGATION OF EGFR INHIBITORS WITH E3 LIGASE LIGAND AND METHODS OF USE” (BEIGENE, LTD., priority 2020, published 2023) can be followed below.

Common to all, as to type: cell-based
In assay [1] the test system is EGFR Del19/T790M/C797S (H1975-clone #28). Briefly: EGFR degradation HTRF assay, H1975-clone #28 DTC cells. The note with it: H1975 # 28 DTC cells; for DC50: EGFR degradation, IC50 (DC50) from curve fit, read-out: DC50(nM) H1975 # 28 DTC; for Dmax (%) H1975 # 28 DTC: maximum percentage of inhibition (degradation). In outline: (§1)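 Compounds (top 10 uM, 5-fold, 8 points, 0.2% DMSO) incubated 16 h at 37 °C on homozygous clones: #23 Del19/C797S, #28 Del19/T790M/C797S, exogenous EGFR only in H1975. HTRF on lysates quantified remaining EGFR relative to DMSO; four-parameter fit gave DC50 and Dmax.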

The target of assay [2] is T1, EGFR L858R/C797S (BaF3 LC cells) (Homo sapiens, UniProt P00533, C797S/L858R).
T1 construct: expressed in transfected cells; host or cells: BaF3
Put plainly: EGFR degradation HTRF assay, BaF3 LC cells. The note with it: BaF3 LC, 16h treatment; for DC50: read-out: BaF3 LC DC50. On the technique in general: TR-FRET usually uses a lanthanide donor and a delayed reading to cut background.

For assay [3], the system named is EGFR Del19/C797S (H1975-clone #23). Put plainly: EGFR degradation HTRF assay, H1975-clone #23 DC cells. Conditions: 16h treatment; for H1975 #23 DC Dmax (%): maximum percentage of degradation; for DC50: H1975 #23 DC, read-out: H1975 #23 DC DC50. In outline:
as §1

The target of assay [4] is T2, EGFR L858R/T790M/C797S (BaF3-LTC cells) (Homo sapiens, UniProt P00533, C797S/L858R/T790M).
T2 construct: expressed in transfected cells; host or cells: BaF3
Briefly: EGFR degradation HTRF assay, BaF3-LTC cells. Conditions: BaF3-LTC cells; for DC50: EGFR degradation, IC50 (DC50) from curve fit, read-out: DC50(nM) BaF3-LTC. In outline:
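Cells treated 16 h at 37 °C, 5% CO2 in medium with 0.2% DMSO; top final concentration 10 uM, 5-fold dilution, 8 doses. Lysates read by HTRF (665/620 nm); degradation % versus DMSO high control, DC50 from four-parameter fit, Dmax as maximal degradation.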

SMILES strings stand for the structures.

As a reminder, the DC50 is the concentration giving 50% degradation. As a reminder, the Dmax is the greatest extent of degradation seen.

T1 sequence (P00533 25-1210 C797S/L858R): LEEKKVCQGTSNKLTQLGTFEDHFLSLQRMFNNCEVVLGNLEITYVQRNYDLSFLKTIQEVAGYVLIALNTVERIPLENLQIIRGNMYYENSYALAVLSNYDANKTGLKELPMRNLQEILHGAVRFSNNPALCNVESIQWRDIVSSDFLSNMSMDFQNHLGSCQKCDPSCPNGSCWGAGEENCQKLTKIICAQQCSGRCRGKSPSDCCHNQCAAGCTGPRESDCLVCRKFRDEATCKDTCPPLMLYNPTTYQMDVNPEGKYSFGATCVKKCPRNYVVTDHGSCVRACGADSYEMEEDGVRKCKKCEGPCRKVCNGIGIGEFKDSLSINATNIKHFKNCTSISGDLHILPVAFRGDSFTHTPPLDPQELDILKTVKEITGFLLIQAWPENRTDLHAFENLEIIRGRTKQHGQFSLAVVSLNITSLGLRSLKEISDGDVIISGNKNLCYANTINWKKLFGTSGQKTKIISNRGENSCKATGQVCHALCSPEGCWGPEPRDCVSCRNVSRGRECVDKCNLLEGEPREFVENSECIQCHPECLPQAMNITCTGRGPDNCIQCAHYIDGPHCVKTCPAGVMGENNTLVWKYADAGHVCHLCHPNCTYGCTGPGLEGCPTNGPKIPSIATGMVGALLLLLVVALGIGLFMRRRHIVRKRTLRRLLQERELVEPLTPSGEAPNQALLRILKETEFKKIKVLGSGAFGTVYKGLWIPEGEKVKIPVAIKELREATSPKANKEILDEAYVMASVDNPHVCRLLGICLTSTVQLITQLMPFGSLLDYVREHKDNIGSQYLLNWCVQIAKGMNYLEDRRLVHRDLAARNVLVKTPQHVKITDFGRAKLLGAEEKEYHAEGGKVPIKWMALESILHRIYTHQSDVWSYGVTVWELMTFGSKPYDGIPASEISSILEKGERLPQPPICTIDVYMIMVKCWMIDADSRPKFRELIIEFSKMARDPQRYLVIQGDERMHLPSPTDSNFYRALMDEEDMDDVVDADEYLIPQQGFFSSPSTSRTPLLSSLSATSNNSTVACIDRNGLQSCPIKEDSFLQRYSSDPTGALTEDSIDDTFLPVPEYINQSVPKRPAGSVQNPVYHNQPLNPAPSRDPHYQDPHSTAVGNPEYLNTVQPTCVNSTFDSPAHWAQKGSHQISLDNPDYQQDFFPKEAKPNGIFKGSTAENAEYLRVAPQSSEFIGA
T2 sequence (P00533 25-1210 T790M/C797S/L858R): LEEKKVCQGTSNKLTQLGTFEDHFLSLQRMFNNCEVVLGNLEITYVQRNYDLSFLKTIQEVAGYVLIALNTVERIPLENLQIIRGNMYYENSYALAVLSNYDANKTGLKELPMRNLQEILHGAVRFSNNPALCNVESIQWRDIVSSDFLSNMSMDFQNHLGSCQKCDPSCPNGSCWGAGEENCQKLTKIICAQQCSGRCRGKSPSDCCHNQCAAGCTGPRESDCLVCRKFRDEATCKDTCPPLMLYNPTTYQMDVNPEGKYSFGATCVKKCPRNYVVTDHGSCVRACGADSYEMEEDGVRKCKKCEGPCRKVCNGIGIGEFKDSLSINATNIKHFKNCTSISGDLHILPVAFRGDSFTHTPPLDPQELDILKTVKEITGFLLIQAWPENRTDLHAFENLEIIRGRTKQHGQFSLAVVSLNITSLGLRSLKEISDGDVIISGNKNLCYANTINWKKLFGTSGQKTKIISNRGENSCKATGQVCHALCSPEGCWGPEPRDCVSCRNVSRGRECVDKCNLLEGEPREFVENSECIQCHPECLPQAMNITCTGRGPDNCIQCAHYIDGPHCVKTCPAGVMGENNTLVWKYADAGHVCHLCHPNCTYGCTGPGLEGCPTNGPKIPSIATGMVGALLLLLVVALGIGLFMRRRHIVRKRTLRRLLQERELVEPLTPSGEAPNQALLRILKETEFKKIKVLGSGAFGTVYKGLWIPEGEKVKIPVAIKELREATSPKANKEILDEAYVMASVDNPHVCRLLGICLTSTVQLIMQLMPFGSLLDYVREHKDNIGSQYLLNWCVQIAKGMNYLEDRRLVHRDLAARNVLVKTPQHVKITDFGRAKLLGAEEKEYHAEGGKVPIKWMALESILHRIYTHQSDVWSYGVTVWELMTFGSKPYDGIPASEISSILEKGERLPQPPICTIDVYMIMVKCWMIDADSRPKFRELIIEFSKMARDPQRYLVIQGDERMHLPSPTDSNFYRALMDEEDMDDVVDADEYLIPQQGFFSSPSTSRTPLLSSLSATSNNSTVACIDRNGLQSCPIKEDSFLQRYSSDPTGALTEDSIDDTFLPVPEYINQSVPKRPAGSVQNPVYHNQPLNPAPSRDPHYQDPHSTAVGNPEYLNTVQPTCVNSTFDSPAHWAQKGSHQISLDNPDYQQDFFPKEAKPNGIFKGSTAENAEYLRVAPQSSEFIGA

For the molecule `CCOc1cc(N2CCC(N3CCN(CC4CN(c5cc(F)c([C@H]6CCC(=O)NC6=O)c(F)c5)C4)CC3)CC2)c(CC)cc1Nc1ncc(Br)c(Nc2ccc3c(=O)n(CC)ncc3c2P(C)(C)=O)n1` [Example 551, (R)-3-(4-(3-((4-(1-(4-((5-bromo-4-((5-(dimethylphosphoryl)-2-ethyl-1-oxo-1,2-dihydrophthalazin-6-yl)amino)pyrimidin-2-yl)amino)-5-ethoxy-2-ethylphenyl)piperidin-4-yl)piperazin-1-yl)methyl)azetidin-1-yl)-2,6-difluorophenyl)piperidine-2,6-dione], the DC50 in assay [1] stood at 1.62 nM; in assay [2] it was 46.5 nM; in assay [3], 5.64 nM; in assay [4], 6.19 nM. The “Dmax (%) H1975 # 28 DTC” value in assay [1] was 90.57%. The “H1975 #23 DC Dmax (%)” value in assay [3] came to 84.14%.
On to `CCOc1cc(N2CCC(N3CCN(CCc4cc5oc(=O)n(C6CCC(=O)NC6=O)c5cc4C)CC3)CC2)c(CC)cc1Nc1ncc(Br)c(Nc2cc(F)c3nc(CC)ccc3c2P(C)(C)=O)n1` (centres unmarked) [Example 553, 3-(6-(2-(4-(1-(4-((5-bromo-4-((5-(dimethylphosphoryl)-2-ethyl-8-fluoroquinolin-6-yl)amino)pyrimidin-2-yl)amino)-5-ethoxy-2-ethylphenyl)piperidin-4-yl)piperazin-1-yl)ethyl)-5-methyl-2-oxobenzo[d]oxazol-3(2H)-yl)piperidine-2,6-dione], for which the DC50 in assay [1] is 0.712 nM; in assay [2], 1.23 nM; in assay [3], 0.828 nM; in assay [4], 2.49 nM. Further, in assay [1], the “Dmax (%) H1975 # 28 DTC” value worked out at 61.54%. Besides, the Dmax in assay [2] (maximum percentage of degradation, read-out: BaF3 LC Dmax (%)) was determined as 93.3%; in assay [4] (maximum percentage of inhibition (degradation), read-out: Dmax (%) BaF3-LTC), 90.7%. For the same molecule, in assay [3], the “H1975 #23 DC Dmax (%)” value is 53.56%.
On to `CCOc1cc(N2CCC(N3CCN(CCc4c(F)ccc5c4n(CC)c(=O)n5C4CCC(=O)NC4=O)CC3)CC2)c(CC)cc1Nc1ncc(Br)c(Nc2ccc3c(=O)n(CC)ncc3c2P(C)(C)=O)n1` (centres unmarked) [Example 559, 3-(4-(2-(4-(1-(4-((5-bromo-4-((5-(dimethylphosphoryl)-2-ethyl-1-oxo-1,2-dihydrophthalazin-6-yl)amino)pyrimidin-2-yl)amino)-5-ethoxy-2-ethylphenyl)piperidin-4-yl)piperazin-1-yl)ethyl)-3-ethyl-5-fluoro-2-oxo-2,3-dihydro-1H-benzo[d]imidazol-1-yl)piperidine-2,6-dione], for which the DC50 came to 0.364 nM in assay [1], 26.9 nM in assay [2], 5.38 nM in assay [3] and 12 nM in assay [4]. The “Dmax (%) H1975 # 28 DTC” value in assay [1] was determined as 80.93%. Besides, the “H1975 #23 DC Dmax (%)” value in assay [3] worked out at 73.67%.
With `CCOc1cc(N2CCC(N3CCN(CCc4cccc5c4C4(CC4)C(=O)N5C4CCC(=O)NC4=O)CC3)CC2)c(CC)cc1Nc1ncc(Br)c(Nc2ccc3nc(CC)ccc3c2P(C)(C)=O)n1` (centres unmarked) [Example 571, 3-(4′-(2-(4-(1-(4-((5-bromo-4-((5-(dimethylphosphoryl)-2-ethylquinolin-6-yl)amino)pyrimidin-2-yl)amino)-5-ethoxy-2-ethylphenyl)piperidin-4-yl)piperazin-1-yl)ethyl)-2′-oxospiro[cyclopropane-1,3′-indolin]-1′-yl)piperidine-2,6-dione], the DC50 is 0.946 nM in assay [1], 13.2 nM in assay [2], 3.05 nM in assay [3] and 3.49 nM in assay [4]. In addition, in assay [1], the “Dmax (%) H1975 # 28 DTC” value is given as 77.08%. The “H1975 #23 DC Dmax (%)” value in assay [3] turned out to be 75.83%.
With `CCOc1cc(N2CCC(N3CCN(CCc4cccc5c4C(C)(C)C(=O)N5C4CCC(=O)NC4=O)CC3)CC2)c(CC)cc1Nc1ncc(Br)c(Nc2ccc3nc(CC)ccc3c2P(C)(C)=O)n1` (centres unmarked) [Example 572, 3-(4-(2-(4-(1-(4-((5-bromo-4-((5-(dimethylphosphoryl)-2-ethylquinolin-6-yl)amino)pyrimidin-2-yl)amino)-5-ethoxy-2-ethylphenyl)piperidin-4-yl)piperazin-1-yl)ethyl)-3,3-dimethyl-2-oxoindolin-1-yl)piperidine-2,6-dione], the DC50 in assay [1] was 1.81 nM; in assay [2] it was 3.8 nM; in assay [3], 4.74 nM; in assay [4], 3.21 nM. Besides, the “Dmax (%) H1975 # 28 DTC” value in assay [1] was determined as 83.86%. The “H1975 #23 DC Dmax (%)” value in assay [3] amounted to 69.16%.
As to `CCc1cc(Nc2ncc(Br)c(Nc3ccc4nc(C)c(F)cc4c3P(C)(C)=O)n2)c(OC)cc1N1CCC(N2CCN(C(=O)[C@H]3CN(c4cc(F)c([C@H]5CCC(=O)NC5=O)c(F)c4)CC3(C)C)CC2)CC1` [Example 576, (R)-3-(4-((R)-4-(4-(1-(4-((5-bromo-4-((5-(dimethylphosphoryl)-3-fluoro-2-methylquinolin-6-yl)amino)pyrimidin-2-yl)amino)-2-ethyl-5-methoxyphenyl)piperidin-4-yl)piperazine-1-carbonyl)-3,3-dimethylpyrrolidin-1-yl)-2,6-difluorophenyl)piperidine-2,6-dione], the DC50 is 2.8 nM in assay [1], 15.8 nM in assay [2], 3.59 nM in assay [3] and 12.1 nM in assay [4]. The “Dmax (%) H1975 # 28 DTC” value in assay [1] is reported as 81.93%. Also, in assay [3], the “H1975 #23 DC Dmax (%)” value worked out at 77.19%.
Consider `CCOc1cc(N2CCC(N3CCN(C(=O)[C@@H]4CCN(c5cc(F)c([C@H]6CCC(=O)NC6=O)c(F)c5)C4)CC3)CC2)c(CC)cc1Nc1ncc(Br)c(Nc2ccc3nc(C)c(F)cc3c2P(C)(C)=O)n1` [Example 577, (R)-3-(4-((R)-3-(4-(1-(4-((5-bromo-4-((5-(dimethylphosphoryl)-3-fluoro-2-methylquinolin-6-yl)amino)pyrimidin-2-yl)amino)-5-ethoxy-2-ethylphenyl)piperidin-4-yl)piperazine-1-carbonyl)pyrrolidin-1-yl)-2,6-difluorophenyl)piperidine-2,6-dione], for which the DC50 in assay [1] is 1.08 nM; in assay [2], 53.8 nM; in assay [3], 7.94 nM; in assay [4], 8.4 nM. In addition, the “Dmax (%) H1975 # 28 DTC” value in assay [1] was found to be 87.91%. Further, the “H1975 #23 DC Dmax (%)” value in assay [3] is listed as 64.13%.
Regarding `CCc1ccc2c(P(C)(C)=O)c(Nc3nc(Nc4cc(C)c(N5CCC(N6CCN(CCc7cccc8c7n(C)c(=O)n8C7CCC(=O)NC7=O)CC6)CC5)cc4OC4CC4)ncc3Br)ccc2n1` (centres unmarked) [Example 584, 3-(4-(2-(4-(1-(4-((5-bromo-4-((5-(dimethylphosphoryl)-2-ethylquinolin-6-yl)amino)pyrimidin-2-yl)amino)-5-cyclopropoxy-2-methylphenyl)piperidin-4-yl)piperazin-1-yl)ethyl)-3-methyl-2-oxo-2,3-dihydro-1H-benzo[d]imidazol-1-yl)piperidine-2,6-dione], the DC50 stood at 0.634 nM in assay [1], 4.9 nM in assay [2], 2.7 nM in assay [3] and 2.72 nM in assay [4]. Besides, the “Dmax (%) H1975 # 28 DTC” value in assay [1] was determined as 79.5%. The “H1975 #23 DC Dmax (%)” value in assay [3] is 70.66%.
